{"source": "patent US4089965A", "about": "“Thiazolylphenylguanidines as antirhinovirus agents” (American Cyanamid Company, priority 1977, dated 1978)", "key": {"Coxsackievirus A-15": {"system": "Coxsackievirus A-15", "experiment": "Plaque assay, minimal inhibitory concentration", "assay_type": "cell-based", "conditions": "HeLa Cells, inhibiting virus plaque formation by 50%"}, "Rhinovirus Serotype 50": {"system": "Rhinovirus Serotype 50", "experiment": "Plaque assay, minimal inhibitory concentration", "assay_type": "cell-based", "conditions": "Enterovirus; HeLa Cells; inhibiting virus plaque formation by 50%"}, "Coxsackievirus B-2": {"system": "Coxsackievirus B-2", "experiment": "Plaque assay, minimal inhibitory concentration", "assay_type": "cell-based", "conditions": "HeLa Cells, inhibiting virus plaque formation by 50%"}, "[1]": {"system": "rhinoviruses and other picornaviruses, including coxsackie and poliovirus", "assay_type": "cell-based"}, "Rhinovirus Serotype 1B": {"system": "Rhinovirus Serotype 1B", "experiment": "Plaque assay, minimal inhibitory concentration", "assay_type": "cell-based", "conditions": "Enterovirus, inhibiting virus plaque formation by 50%"}, "Coxsackievirus A-11": {"system": "Coxsackievirus A-11", "experiment": "Plaque assay, minimal inhibitory concentration", "assay_type": "cell-based", "conditions": "HeLa Cells, inhibiting virus plaque formation by 50%"}, "Rhinovirus strain 14": {"system": "Rhinovirus strain 14", "experiment": "Protection of tissue from cytopathic effects (plaque inhibition, filter paper disc or agar overlay)", "conditions": "33°, 3 to 5 days"}, "Rhinovirus Serotype 1A": {"system": "Rhinovirus Serotype 1A", "experiment": "Plaque assay, minimal inhibitory concentration", "assay_type": "cell-based", "conditions": "Enterovirus; HeLa Cells; inhibiting virus plaque formation by 50%"}, "Rhinovirus Type 53": {"system": "Rhinovirus Type 53", "experiment": "Viral sensitivity, filter disc method", "assay_type": "cell-based", "conditions": "strain FO13928; about 50 mcg per disc, HeLa", "protocol": "(§1) In the test for viral sensitivity, by the filter disc method, 5 mg. of 1-(4-phenyl-2-thiazolyl)-3-phenylguanidine was dissolved in 1-2 drops of dimethylsulfoxide and 2.5 ml. of saline. Filter paper discs, when saturated with the solution, absorbed about 50 mcg. of the compound.\n(§2) Sensitivity tests were performed by a modification of the method of Herrmann, et al., Proc. Soc. Exp. Biol. & Med., 103, 625 (1960). HeLa monolayers in 150 mm plastic dishes were infected with 1.0 ml. of rhinovirus suspension known to produce destruction of 80-90% of the cells in 4 to 5 days. Following viral adsorption, the cells were overlayed with 30 ml. of Eagle's minimum essential medium containing Noble agar at 0.5%, bovine fetal serum at 2.0%, diethylaminoethyl dextran at 100 mcg/ml. and magnesium chloride at 3 millimoles. Filter discs (1/4 inch Carl Schleicher and Schuell Co., No. 740E), containing about 50 mcg. of 1-(4-phenyl-2-thiazolyl)-3-phenylguanidine, were placed on the solidified surface and the culture plates incubated at 33° C. After 4 to 5 days, the overlay medium was decanted and the cells stained with 0.1% crystal violet in 20% ethanol. A zone of 10 mm or more in which at least two-thirds of the cells were protected from viral cytopathic effects, indicates antiviral activity. The following Table III lists 35 rhinovirus serotypes which were inhibited by this compound."}, "Rhinovirus Type 11": {"system": "Rhinovirus Type 11", "experiment": "Viral sensitivity, filter disc method", "assay_type": "cell-based", "conditions": "strain 1CV15; about 50 mcg per disc, HeLa", "protocol": "as §1, §2"}, "Rhinovirus Type 52": {"system": "Rhinovirus Type 52", "experiment": "Viral sensitivity, filter disc method", "assay_type": "cell-based", "conditions": "strain 515-CV34; about 50 mcg per disc, HeLa", "protocol": "as §1, §2"}, "Rhinovirus Type 1B": {"system": "Rhinovirus Type 1B", "experiment": "Viral sensitivity, filter disc method", "assay_type": "cell-based", "conditions": "strain B632; about 50 mcg per disc, HeLa, 33° C., 4 to 5 days", "protocol": "as §1, §2"}, "Rhinovirus Type 12": {"system": "Rhinovirus Type 12", "experiment": "Viral sensitivity, filter disc method", "assay_type": "cell-based", "conditions": "strain 181CV16; about 50 mcg per disc, HeLa", "protocol": "as §1, §2"}, "Rhinovirus Type 50": {"system": "Rhinovirus Type 50", "experiment": "Viral sensitivity, filter disc method", "assay_type": "cell-based", "conditions": "strain A2 No. 58; about 50 mcg per disc, HeLa", "protocol": "as §1, §2"}, "Rhinovirus Type 30": {"system": "Rhinovirus Type 30", "experiment": "Viral sensitivity, filter disc method", "assay_type": "cell-based", "conditions": "strain 106F; about 50 mcg per disc, HeLa", "protocol": "as §1, §2"}, "Rhinovirus Type 5": {"system": "Rhinovirus Type 5", "experiment": "Viral sensitivity, filter disc method", "assay_type": "cell-based", "conditions": "strain Norman; about 50 mcg per disc, HeLa", "protocol": "as §1, §2"}, "Rhinovirus Type 21": {"system": "Rhinovirus Type 21", "experiment": "Viral sensitivity, filter disc method", "assay_type": "cell-based", "conditions": "strain 47CV21; about 50 mcg per disc, HeLa", "protocol": "as §1, §2"}, "Rhinovirus Type 34": {"system": "Rhinovirus Type 34", "experiment": "Viral sensitivity, filter disc method", "assay_type": "cell-based", "conditions": "strain 137-3; about 50 mcg per disc, HeLa", "protocol": "as §1, §2"}, "Rhinovirus Type 47": {"system": "Rhinovirus Type 47", "experiment": "Viral sensitivity, filter disc method", "assay_type": "cell-based", "conditions": "strain 1979MCV46; about 50 mcg per disc, HeLa", "protocol": "as §1, §2"}, "Rhinovirus Type 38": {"system": "Rhinovirus Type 38", "experiment": "Viral sensitivity, filter disc method", "assay_type": "cell-based", "conditions": "strain CH79; about 50 mcg per disc, HeLa", "protocol": "as §1, §2"}, "Rhinovirus Type 2": {"system": "Rhinovirus Type 2", "experiment": "Viral sensitivity, filter disc method", "assay_type": "cell-based", "conditions": "strain HGP; about 50 mcg per disc, HeLa", "protocol": "as §1, §2"}, "Rhinovirus Type 51": {"system": "Rhinovirus Type 51", "experiment": "Viral sensitivity, filter disc method", "assay_type": "cell-based", "conditions": "strain 605CV45; about 50 mcg per disc, HeLa", "protocol": "as §1, §2"}, "Rhinovirus Type 16": {"system": "Rhinovirus Type 16", "experiment": "Viral sensitivity, filter disc method", "assay_type": "cell-based", "conditions": "strain 11757; about 50 mcg per disc, HeLa", "protocol": "as §1, §2"}, "Rhinovirus Type 19": {"system": "Rhinovirus Type 19", "experiment": "Viral sensitivity, filter disc method", "assay_type": "cell-based", "conditions": "strain 6072CV18; about 50 mcg per disc, HeLa", "protocol": "as §1, §2"}, "Rhinovirus Type 28": {"system": "Rhinovirus Type 28", "experiment": "Viral sensitivity, filter disc method", "assay_type": "cell-based", "conditions": "strain 6101CV29; about 50 mcg per disc, HeLa", "protocol": "as §1, §2"}, "Rhinovirus Type 31": {"system": "Rhinovirus Type 31", "experiment": "Viral sensitivity, filter disc method", "assay_type": "cell-based", "conditions": "strain 140F; about 50 mcg per disc, HeLa", "protocol": "as §1, §2"}, "Rhinovirus Type 10": {"system": "Rhinovirus Type 10", "experiment": "Viral sensitivity, filter disc method", "assay_type": "cell-based", "conditions": "strain 204CV14; about 50 mcg per disc, HeLa", "protocol": "as §1, §2"}, "Rhinovirus Type 22": {"system": "Rhinovirus Type 22", "experiment": "Viral sensitivity, filter disc method", "assay_type": "cell-based", "conditions": "strain 127CV22; about 50 mcg per disc, HeLa", "protocol": "as §1, §2"}, "Coxsackievirus A-21": {"system": "Coxsackievirus A-21", "experiment": "Plaque assay, minimal inhibitory concentration", "assay_type": "cell-based", "conditions": "HeLa Cells, inhibiting virus plaque formation by 50%"}, "Rhinovirus Serotype 2": {"system": "Rhinovirus Serotype 2", "experiment": "Plaque assay, minimal inhibitory concentration", "assay_type": "cell-based", "conditions": "Enterovirus, inhibiting virus plaque formation by 50%"}, "Rhinovirus Serotype 52": {"system": "Rhinovirus Serotype 52", "experiment": "Plaque assay, minimal inhibitory concentration", "assay_type": "cell-based", "conditions": "Enterovirus; HeLa Cells; inhibiting virus plaque formation by 50%"}, "Rhinovirus Serotype 39": {"system": "Rhinovirus Serotype 39", "experiment": "Plaque assay, minimal inhibitory concentration", "assay_type": "cell-based", "conditions": "Enterovirus; HeLa Cells; inhibiting virus plaque formation by 50%"}, "Coxsackievirus B-5": {"system": "Coxsackievirus B-5", "experiment": "Plaque assay, minimal inhibitory concentration", "assay_type": "cell-based", "conditions": "HeLa Cells, inhibiting virus plaque formation by 50%"}, "rhinoviruses": {"system": "rhinoviruses", "experiment": "Activity in three human epithelial cell lines", "assay_type": "cell-based, rhinovirus", "conditions": "Hela, L-132 and Detroit-6"}}}
{"smiles": "N=C(Nc1ccccc1)Nc1nc(-c2ccccc2)cs1", "note": "[1-(4-phenyl-2-thiazolyl)-3-phenylguanidine]", "values": [{"measurement": "IC50", "setting": "Coxsackievirus A-15", "value": "1.6 to 3.1", "unit": "µg/mL"}, {"measurement": "IC50", "setting": "Rhinovirus Serotype 50", "value": "0.2 to 0.4", "unit": "µg/mL"}, {"measurement": "IC50", "setting": "Coxsackievirus B-2", "value": "0.8 to 1.6", "unit": "µg/mL"}, {"measurement": "inhibition of virus growth", "setting": "[1]; by inhibitory effects on virus plaque formation and virus yield", "value": "concentration-related inhibition"}, {"measurement": "activity against rhinoviruses and other picornaviruses", "setting": "[1]; human cell cultures", "value": "active against a broad spectrum of rhinoviruses and other picornaviruses"}, {"measurement": "IC50", "setting": "Rhinovirus Serotype 1B; L132, L-132 Cells", "value": 0.8, "unit": "µg/mL"}, {"measurement": "IC50", "setting": "Rhinovirus Serotype 1B; HeLa Cells", "value": "0.8 to 1.6", "unit": "µg/mL"}, {"measurement": "IC50", "setting": "Coxsackievirus A-11", "value": "1.6 to 3.1", "unit": "µg/mL"}, {"measurement": "Protection of tissue from destruction by virus", "setting": "Rhinovirus strain 14", "value": "+"}, {"measurement": "IC50", "setting": "Rhinovirus Serotype 1A", "value": "0.2 to 0.4", "unit": "µg/mL"}, {"measurement": "inhibition of rhinovirus serotype (zone of 10 mm or more)", "setting": "Rhinovirus Type 53", "value": "inhibited"}, {"measurement": "inhibition of rhinovirus serotype (zone of 10 mm or more)", "setting": "Rhinovirus Type 11", "value": "inhibited"}, {"measurement": "inhibition of rhinovirus serotype (zone of 10 mm or more)", "setting": "Rhinovirus Type 52", "value": "inhibited"}, {"measurement": "inhibition of rhinovirus serotype (zone of 10 mm or more)", "setting": "Rhinovirus Type 1B", "value": "inhibited"}, {"measurement": "inhibition of rhinovirus serotype (zone of 10 mm or more)", "setting": "Rhinovirus Type 12", "value": "inhibited"}, {"measurement": "inhibition of rhinovirus serotype (zone of 10 mm or more)", "setting": "Rhinovirus Type 50", "value": "inhibited"}, {"measurement": "inhibition of rhinovirus serotype (zone of 10 mm or more)", "setting": "Rhinovirus Type 30", "value": "inhibited"}, {"measurement": "inhibition of rhinovirus serotype (zone of 10 mm or more)", "setting": "Rhinovirus Type 5", "value": "inhibited"}, {"measurement": "inhibition of rhinovirus serotype (zone of 10 mm or more)", "setting": "Rhinovirus Type 21", "value": "inhibited"}, {"measurement": "inhibition of rhinovirus serotype (zone of 10 mm or more)", "setting": "Rhinovirus Type 34", "value": "inhibited"}, {"measurement": "inhibition of rhinovirus serotype (zone of 10 mm or more)", "setting": "Rhinovirus Type 47", "value": "inhibited"}, {"measurement": "inhibition of rhinovirus serotype (zone of 10 mm or more)", "setting": "Rhinovirus Type 38", "value": "inhibited"}, {"measurement": "inhibition of rhinovirus serotype (zone of 10 mm or more)", "setting": "Rhinovirus Type 2", "value": "inhibited"}, {"measurement": "inhibition of rhinovirus serotype (zone of 10 mm or more)", "setting": "Rhinovirus Type 51", "value": "inhibited"}, {"measurement": "inhibition of rhinovirus serotype (zone of 10 mm or more)", "setting": "Rhinovirus Type 16", "value": "inhibited"}, {"measurement": "inhibition of rhinovirus serotype (zone of 10 mm or more)", "setting": "Rhinovirus Type 19", "value": "inhibited"}, {"measurement": "inhibition of rhinovirus serotype (zone of 10 mm or more)", "setting": "Rhinovirus Type 28", "value": "inhibited"}, {"measurement": "inhibition of rhinovirus serotype (zone of 10 mm or more)", "setting": "Rhinovirus Type 31", "value": "inhibited"}, {"measurement": "inhibition of rhinovirus serotype (zone of 10 mm or more)", "setting": "Rhinovirus Type 10", "value": "inhibited"}, {"measurement": "inhibition of rhinovirus serotype (zone of 10 mm or more)", "setting": "Rhinovirus Type 22", "value": "inhibited"}, {"measurement": "IC50", "setting": "Coxsackievirus A-21", "value": "1.6 to 3.1", "unit": "µg/mL"}, {"measurement": "IC50", "setting": "Rhinovirus Serotype 2; L132, L-132 Cells", "value": "0.4 to 0.8", "unit": "µg/mL"}, {"measurement": "IC50", "setting": "Rhinovirus Serotype 2; Detroit-6 Cells", "value": 0.4, "unit": "µg/mL"}, {"measurement": "IC50", "setting": "Rhinovirus Serotype 2; HeLa Cells", "value": "0.4 to 0.8", "unit": "µg/mL"}, {"measurement": "IC50", "setting": "Rhinovirus Serotype 52", "value": 0.4, "unit": "µg/mL"}, {"measurement": "IC50", "setting": "Rhinovirus Serotype 39", "value": 0.4, "unit": "µg/mL"}, {"measurement": "IC50", "setting": "Coxsackievirus B-5", "value": "0.8 to 1.6", "unit": "µg/mL"}, {"measurement": "activity against rhinoviruses in three human epithelial cell lines", "setting": "rhinoviruses", "value": "equally active"}]}
